In paper PMC9144902, “Metal(II) Complexes of the Fluoroquinolone Fleroxacin: Synthesis, Characterization and Biological Profile” (Pharmaceutics, 2022):
Where two headings read alike, the source gives them in different places.

What was measured:
[1] = molecular target: T1, human serum albumin (HSA) (Homo sapiens, UniProt P02768); assay: Albumin binding by tryptophan fluorescence emission quenching; details: for kq(HSA), HSA-quenching constant: buffer pH 7.0, λexc 295 nm, Stern–Volmer, τ0 = 10^–8 s; for HSA fluorescence, % of the initial fluorescence intensity (I/Io): λem,max = 351 nm, final value of titration (Figure S10)
T1 construct: purchased
T1 sequence (P02768 25-609): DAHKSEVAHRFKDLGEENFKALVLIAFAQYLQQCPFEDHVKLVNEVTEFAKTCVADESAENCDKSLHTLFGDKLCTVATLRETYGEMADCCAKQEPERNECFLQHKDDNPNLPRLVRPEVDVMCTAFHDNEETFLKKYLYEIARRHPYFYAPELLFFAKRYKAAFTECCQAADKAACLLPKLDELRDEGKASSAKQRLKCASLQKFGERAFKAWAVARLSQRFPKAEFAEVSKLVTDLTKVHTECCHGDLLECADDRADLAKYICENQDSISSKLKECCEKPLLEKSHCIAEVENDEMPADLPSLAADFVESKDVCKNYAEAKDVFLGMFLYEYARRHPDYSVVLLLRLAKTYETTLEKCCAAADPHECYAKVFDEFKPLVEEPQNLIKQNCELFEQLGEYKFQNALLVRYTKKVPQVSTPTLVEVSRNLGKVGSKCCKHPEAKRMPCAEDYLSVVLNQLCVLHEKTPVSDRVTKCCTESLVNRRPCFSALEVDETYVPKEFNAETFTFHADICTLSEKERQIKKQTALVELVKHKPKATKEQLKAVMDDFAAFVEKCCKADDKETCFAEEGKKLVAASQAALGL
Procedure: (§1) Serum albumins (Sas) are the most abundant serum proteins and play a role in the circulatory system, primarily in the transport of drugs and other bioactive small molecules through the bloodstream.
(§2) The SA-quenching constants (kq) for the compounds (Table 5) were calculated with the Stern–Volmer quenching equation (Equations (S2) and (S3)).
(§3) Albumin-binding constants (K) were calculated using the Scatchard equation (Equation (S4)). […]
(§4) S2. Interaction with serum albumins
(§5) The albumin–binding study for the compounds was carried out b y fluorescence emission

[2] = molecular target: T2, bovine serum albumin (BSA) (Bos taurus, UniProt P02769); assay: as above; details: for kq(BSA), BSA-quenching constant: buffer pH 7.0, λexc 295 nm, Stern–Volmer, τ0 = 10^–8 s; for BSA fluorescence, % of the initial fluorescence intensity (I/Io): λem,max = 342 nm, final value of titration (Figure S11)
T2 construct: purchased
T2 sequence (P02769 25-607): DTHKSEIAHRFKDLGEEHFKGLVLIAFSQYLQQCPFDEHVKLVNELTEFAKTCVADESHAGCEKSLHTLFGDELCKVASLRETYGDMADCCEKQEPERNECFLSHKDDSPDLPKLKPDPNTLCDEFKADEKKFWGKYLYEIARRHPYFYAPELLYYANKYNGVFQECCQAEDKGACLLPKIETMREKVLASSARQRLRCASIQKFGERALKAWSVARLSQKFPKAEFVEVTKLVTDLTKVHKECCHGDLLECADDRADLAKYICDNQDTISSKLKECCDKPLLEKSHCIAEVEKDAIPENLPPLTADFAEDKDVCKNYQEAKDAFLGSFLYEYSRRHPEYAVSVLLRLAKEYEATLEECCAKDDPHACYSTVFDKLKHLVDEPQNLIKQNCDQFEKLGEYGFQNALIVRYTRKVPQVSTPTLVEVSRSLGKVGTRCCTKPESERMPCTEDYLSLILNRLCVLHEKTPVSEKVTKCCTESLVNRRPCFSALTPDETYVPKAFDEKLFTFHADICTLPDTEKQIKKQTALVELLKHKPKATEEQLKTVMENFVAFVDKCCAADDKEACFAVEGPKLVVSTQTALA
Procedure: as §1, §2, §3, §4, §5

[3] = system: EB–DNA adduct (CT DNA); assay: Competitive study with EB (EB–DNA fluorescence quenching); format: binding, calf; details: for Ksv, Stern–Volmer constant: EB–DNA adduct; for ΔI/Io, percentage of EB–DNA fluorescence quenching: [EB] = 20 μM, [DNA] = 26 μM, λexc 540 nm, λem 592 nm; for EB–DNA relative fluorescence emission intensity, % of the initial (I/Io): λemission = 592 nm, final value (up to), Figure S14; for kq, EB–DNA quenching constant: τo = 23 ns
Procedure: Ethidium bromide is a typical marker of intercalation because it can intercalate between adjacent DNA bases with its planar phenanthridine ring.
The fluorescence emission spectra of the EB–DNA adduct ([EB] = 20 μM, [DNA] = 26 μM) in the absence and presence of the compounds were recorded at increasing amounts of the respective compounds. […] As a conclusion, an intercalative interaction of the complexes with CT DNA can be proposed.
The values of the Stern–Volmer constants (Ksv) for the compounds were calculated using the linear Stern–Volmer equation (Equation (S2)) and were of the order of 10^5 M^−1 (Table 8), indicating tight binding of the complexes with DNA [61]. The Ksv values for the complexes are in the range found for a number of metal(II)–quinolone complexes, and complex 12 presents the highest Ksv value (Ksv = 7.25(±0.30) × 10^5 M^−1) among the compounds studied. In addition, the EB–DNA quenching constants (kq) for the compounds were calculated with Equation (S3), assuming τo = 23 ns as the fluorescence lifetime. The values of kq (Table 8) are much higher than the value of 10^10 M^−1s^−1, indicating a static mechanism of EB–DNA fluorescence quenching induced by the compounds, which can result from the formation of a new adduct apparently consisting of each complex and DNA [61].
In order to determine and confirm the DNA–binding mode of the compounds, a competitive study with EB as an intercalating marker is performed b y fluorescence emission spectroscopy.
Therefo re, the E B–displacing abilit y of the compounds from its EB –DN A conjugate was ex amined.
The DNA–EB adduct was prepared b y addition of 20 μM EB and 26 μM CT DNA in buffer solution (150 mM NaCl and 15 mM trisodium citrate at pH 7.0). The potential intercalation of the compounds between the DNA–bases was studied by the addition of a certain amount of the compound solution into the EB–DNA adduct solution. The influence of the compounds on the EB – DNA solution was monitored through the changes of the fluorescence emission spectra at excitation […]
wavelen gth (λex ) at 540 nm [S3]. […]
room temperature in solution or in the presence of DNA, under the same experimental conditions (λex = 540 nm). Bearing t hat in mind, the observed quenching of the EB–DNA solution is evidentl y associated to the displacement of EB from its EB–DNA adduct.
The quenching effici ency (KSV) for each compound was assessed according to the Stern – Volmer equation: Io =1+ k τ [Q] = 1+ K [Q], (eq. S2) [S3] where I0 and I = the fluorescence […]
emission intensities of EB–DNA in the absence and presence of the quencher, respectivel y, [Q] = the concentration of the quencher (i.e. compounds). KSV is obtained from t he Stern–Volmer plots b y the slope of the diagram I0/ I versus [Q]. Taking τ0 = 23 ns as the fluorescence lifetime of the EB– DNA s ystem [S5], the EB –DNA quenching constants (k q) of the compounds can be determined accordin g to eq.S3: K SV = kqτo . […]
[S2] Irgi, E.P.; Geromichalos, G.D.; Balala, S.; Kljun, J.; Kalogiannis, S.; Papadopoulos, A.; Turel, I.; Psomas, G. Cobalt(II) complexes with quinolone antimicrobial drug oxolinic acid: […]
[ S 5] Heller, D.P.; Greenstock, C.L. Fluorescence lifetime analysis of DNA intercalated ethidium bromide and quenching by free d ye. Biophys. Chem . 1994, 50, 305–312.

[4] = system: Staphylococcus aureus ATCC 6538; assay: Antimicrobial activity, MIC determination; format: cell-based
Procedure: (§6) The in vitro antimicrobial activity of the compounds was evaluated by determining the minimum inhibitory concentration (MIC) against the Gram-positive microorganisms Staphylococcus aureus ATCC 6538 (S. aureus) and Bacillus subtilis ATCC 6633 (B. subtilis) and the Gram-negative microorganism Xanthomonas campestris ATCC 1395 (X. campestris). The affinity of the compounds for bovine serum albumin (BSA) and human serum albumin (HSA) was studied by fluorescence emission spectroscopy, and the corresponding binding constants were determined. Furthermore, the interaction of the compounds with calf-thymus DNA (CT DNA) was investigated to determine the possible mode of interaction by the following methods: (i) UV–vis spectroscopy (where the DNA-binding constants of the complexes (Kb) were also determined), (ii) DNA-viscosity measurements, (iii) cyclic voltammetry and (iv) competitive DNA-binding studies with the classic intercalator ethidium bromide (EB) performed by fluorescence emission spectroscopy.
(§7) Three bacterial strains, one Gram(−) (X. campestris) and two Gram(+) (S. aureus and B. subtilis), were used in order to test the antimicrobial activity of the compounds.
(§8) The antimicrobial activity of the compounds was evaluated b y determining their respective MIC values towards one Gram–( –) (Xanthomonas campestris ATCC 1395 (X. campestris)) and two Gram–(+) (Staphylococcus aureus ATCC 6538 (S. aureus) and Bacillus subtilis ATCC 6633 (B. subtilis)) bacterial species. Cultures of these microbial strains were grown on a rich selective agar medium and stored at 4°C. The selective media used were Nutrient Agar or Broth for B. subtilis and S. aureus, and Yeast Mold Agar or Broth for X. campestris . Cells picked from the surface of the stored cultures were used to initiate liquid pre–cultures of the same selective medium at an initial turbidity of roughl y 1 McFarland unit. Pre–cultures were incubated for 24 h in a rotar y sh aking incubator and subsequently the y were used to inoculate the test cultures used for the determination of MIC at an initial turbidity of 0.5 McFarland units. The test cultures consisted of Mueller–Hinton broth (Deben Diagnostics Ltd) containing different concentrations of the compounds. Different concentrations were achieved as follows: the compounds were freshly dissolved in DMSO to a concentration of 1 mg/mL and they were diluted with DMSO, using the method of progressive double dilution. Therefore, working solutions with decreasing concentrations of the compounds under investigation were achieved. The working solutions were subsequently diluted to the final desired concentration b y addition to the growth medium at a proportion of 2:98. MIC values were determined as the lowest concentrations of the tested compounds that inhibited visible growth of each respective organism after a 24–h incubation [ S1]. Bacterial growth was determined b y measuring the turbidit y of appropriatel y diluted cultures at 600 nm with reference to equall y diluted sterile growth medium and the inhibition achieved was calculated b y comparing the turbidit y of each culture to the average of the turbidit y of three non–inhibited cultures. All test cultures were grown in triplicates and for the determination of MIC, growth had to be inhibited in at least two cultures of the triplicate. In cubation temperatur e at all stages was 37°C ex cept for X. campestris t h at was cultivated at 28°C [S2]. […]
(§9) The fluorescence spectra of the compounds were recorded under the same experimental conditions and presented a low–intensity emission band in the region 405–410 nm .

[5] = system: Bacillus subtilis ATCC 6633; assay: Antimicrobial activity, MIC determination; format: cell-based
Procedure: as §6, §7, §8, §9

[6] = system: Xanthomonas campestris ATCC 1395; assay: Antimicrobial activity, MIC determination; format: cell-based
Procedure: as §6, §7, §8, §9

[7] = S. aureus, 24-h incubation, 37°C
[8] = B. subtilis, 24-h incubation, 37°C
[9] = X. campestris, 24-h incubation, 28°C

SMILES | kq(HSA), HSA-quenching constant ([1]; HSA 3 μM) | HSA fluorescence, % of the initial fluorescence intensity (I/Io) [1] [%] | kq(BSA), BSA-quenching constant ([2]; BSA 3 μM) | BSA fluorescence, % of the initial fluorescence intensity (I/Io) [2] [%] | Ksv, Stern–Volmer constant [3] | ΔI/Io, percentage of EB–DNA fluorescence quenching [3] [%] | EB–DNA relative fluorescence emission intensity, % of the initial (I/Io) [3] [%] | kq, EB–DNA quenching constant [3] | other results
CN1CCN(c2c(F)cc3c(=O)c(C(=O)O)cn(CCF)c3c2F)CC1 [Fleroxacin, 6,8-difluoro-1-(2–fluoroethyl)-7-(4-methylpiperazin-1-yl)-4-oxoquinoline-3-carboxylic acid] | 2.69(±0.11) × 10^12 M^−1s^−1 | 66.5 | 6.19(±0.23) × 10^12 M^−1s^−1 | 47.5 | 4.64(±0.14) × 10^5 M^–1 | 65.8 | 34.2 | 2.02(±0.06) × 10^13 M^−1s^−1 | Kd [1]: 15.2 µM; Kd [2]: 30.5 µM; MIC ([4]; Staphylococcus aureus, ATCC6538, 24 h): 4 µg/mL; MIC ([4]; Staphylococcus aureus, ATCC6538, 24 h, read-out: MIC (values in parentheses)): 10.8 µM; MIC ([5]; Bacillus subtilis, ATCC6633, 24 h): 4 µg/mL; MIC ([5]; Bacillus subtilis, ATCC6633, 24 h, read-out: MIC (values in parentheses)): 10.8 µM; MIC ([6]; Xanthomonas campestris, ATCC1395, 24 h): 8 µg/mL; MIC ([6]; Xanthomonas campestris, ATCC1395, 24 h, read-out: MIC (values in parentheses)): 21.7 µM
CN1CCN(c2c(F)cc3c(=O)c(C(=O)[O-])cn(CCF)c3c2F)CC1.CN1CCN(c2c(F)cc3c(=O)c(C(=O)[O-])cn(CCF)c3c2F)CC1.CO.CO.[Zn+2] [complex 3, [Zn(flrx)2(MeOH)2]] | 2.26(±0.10) × 10^13 M^−1s^−1 | 19.8 | 4.55(±0.21) × 10^13 M^−1s^−1 | 10.8 | 6.07(±0.17) × 10^5 M^–1 | 85.9 | 14.1 | 2.64(±0.07) × 10^13 M^−1s^−1 | K(HSA), HSA-binding constant ([1]; HSA 3 μM, buffer pH 7.0, Scatchard equation): 6.15(±0.25) × 10^4 M^−1; K(BSA), BSA-binding constant ([2]; BSA 3 μM, buffer pH 7.0, Scatchard equation): 1.86(±0.08) × 10^5 M^−1; MIC [4, 7]: 8 µg/mL; MIC (values in parentheses) [4, 7]: 9.2 µM; MIC [5, 8]: 8 µg/mL; MIC (values in parentheses) [5, 8]: 9.2 µM; MIC [6, 9]: 32 µg/mL; MIC (values in parentheses) [6, 9]: 36.8 µM
